The numbers were not newly measured in US20020171063A1, “Reduced toxicity ethylene glycol-based antifreeze/heat transfer fluid concentrates and antifreeze/heat transfer fluids” (priority 2001, published 2002), which cites them from elsewhere.

This series relates to laboratory rats.

For `CC(O)CO` (centres unmarked) [PG, 1,2-propanediol], the “acute oral toxicity (LD50)” value is recorded as 20,000 mg/kg.
Take `O.O.O.O.O=B[O-].[Na+]` [metaborate]: the “acute oral toxicity (LD50)” value is on record as 1,700 mg/kg.
